Laboratory results reported in ChEMBL document CHEMBL5230160, “Chemotherapeutics for Toxoplasma gondii: Molecular Biotargets, Binding Modes, and Structure-Activity Relationship Investigations” (J Med Chem, 2021).
In brackets after ≈: the same amount, converted by molar mass.

Key:
[1] = Inhibition of Toxoplasma gondii recombinant ENR in presence of NADH by absorbance based analysis
Toxoplasma gondii [2] = assay: Antiparasitic activity against Toxoplasma gondii infected in HFF cells by fluorescence based analysis; type: functional, organism-based
Toxoplasma gondii [3] = assay: Antiparasitic activity against Toxoplasma gondii tachyzoites; type: functional, organism-based; conditions: Toxoplasma gondii; for IC50: read-out: IC50; for EC50: read-out: ED50 (the source's name)
[4] = Inhibition of Toxoplasma gondii FPPS incubated for 30 mins by scintillation counting analysis
Vero = assay: Cytotoxicity against African green monkey Vero cells assessed as cell growth inhibition by alamar blue assay; type: functional; conditions: Chlorocebus sabaeus, read-out: ED50 (the source's name)

| Compound | IC50 [4] [µM] | EC50 (Toxoplasma gondii [3]) [µM] | EC50 (Vero) [µM] | other results |
| --- | --- | --- | --- | --- |
| CCCCc1cn(Cc2ccc(Oc3ccc(Cl)cc3O)c(Cl)c2)nn1 |  |  |  | IC50 [1]: 0.043 µM; IC50 (Toxoplasma gondii [2]): 0.25 µM |
| Cc1nnsc1C(=O)NNC(=S)Nc1ccc(F)cc1F |  |  |  | IC50 (Toxoplasma gondii [3]): 92.3 µg/mL |
| CCCCCCCNCC(O)(P(=O)(O)O)P(=O)(O)O | > 1 |  |  |  |
| N#Cc1ccccc1CNc1ccc(Oc2ccc(Cl)cc2O)c(Cl)c1 |  |  |  | IC50 [1]: 0.016 µM; IC50 (Toxoplasma gondii [2]): > 10 µM |
| Oc1cc(Cl)ccc1Oc1ccc(CNc2ccccc2)cc1Cl |  |  |  | IC50 [1]: 0.031 µM; IC50 (Toxoplasma gondii [2]): > 10 µM |
| CCCCCCCCNCC(O)(P(=O)(O)O)P(=O)(O)O | 0.039 |  |  |  |
| N#CSCCOc1ccc(Oc2ccccn2)cc1 |  | > 10 | > 200 |  |
| CCCCCCCCCCCCCCNCC(P(=O)(O)O)P(=O)(O)O | 0.292 |  |  |  |
| N#CSCCOc1ccc(Oc2cccnc2)cc1 |  | 3.71 | 134 |  |
| O=P(O)(O)C(CSCCOc1cccc(Oc2ccccc2)c1)P(=O)(O)O |  | 0.67 | > 100 |  |
| CCCc1ccc(Oc2ccc([N+](=O)[O-])cc2Cl)c(O)c1 |  |  |  | IC50 [1]: < 0.02 µM; IC50 (Toxoplasma gondii [2]): 6 µM |
| CCCCCCC[S+](C)CC(P(=O)(O)O)P(=O)(O)O (stereo not given) | 0.013 |  |  |  |
| N#CSCCOc1cccc2ccccc12 |  | 3.13 | > 50 |  |
| N#CSCCOc1ccc2ccccc2c1 |  | 3.62 | > 100 |  |
| O=[N+]([O-])c1ccc(Oc2ccc(Cl)cc2O)c(Cl)c1 |  |  |  | IC50 [1]: < 0.02 µM; IC50 (Toxoplasma gondii [2]): 4 µM |
| C[C@@H](Oc1cc(-c2cnn(C3CCNCC3)c2)cnc1N)c1c(Cl)ccc(F)c1Cl [CRIZOTINIB] |  |  |  | IC50 (Toxoplasma gondii [3]): 4 µM |
| N#CSCCOc1ccc(Oc2ccccc2)cc1 |  | 4.8 | 82.6 |  |
| N#CSCCOc1ccc(Oc2ccc3ccccc3c2)cc1 |  | 2.25 | 105 |  |
| CCCCCCCCCCCCNCC(P(=O)(O)O)P(=O)(O)O | 0.093 |  |  |  |
| N#CSCCOc1ccc(Oc2cccc(Oc3ccccc3Cl)c2)cc1 |  | 2.13 | > 50 |  |
| CCCCCCNCC(O)(P(=O)(O)O)P(=O)(O)O | 0.051 |  |  |  |
| N#CSCCOc1ccc(Oc2ccc(C(F)(F)F)cc2)cc1 |  | 1.86 | > 50 |  |
| Oc1cc(Cl)ccc1Oc1ccc(Cn2ccnn2)cc1Cl |  |  |  | IC50 [1]: 0.026 µM; IC50 (Toxoplasma gondii [2]): 0.25 µM |

| Compound | IC50 [4] [µM] | EC50 (Toxoplasma gondii [3]) [µM] | EC50 (Vero) [µM] | other results |
| --- | --- | --- | --- | --- |
| CCCCCCCC[S+]([O-])CC(P(=O)(O)O)P(=O)(O)O (stereo not given) | 0.016 |  |  |  |
| Cc1nnsc1C(=O)NNC(=S)Nc1ccccc1Br |  |  |  | IC50 (Toxoplasma gondii [3]): 74.9 µg/mL |
| Cc1occc1C(=O)NN=C(S)Nc1ccccc1 |  |  |  | IC50 (Toxoplasma gondii [3]): 59 µg/mL |
| N#CSCCOc1ccc(Oc2cccc3ccccc23)cc1 |  | 2.87 |  |  |
| CCCCCCCCCCCNCC(P(=O)(O)O)P(=O)(O)O | 0.868 |  |  |  |
| N#CSCCOc1ccc(Oc2ccncc2)cc1 |  | 7.86 | > 200 |  |
| CCCCCCCCCNCC(P(=O)(O)O)P(=O)(O)O | 0.44 |  |  |  |
| N#CSCCOc1ccc(Oc2cccc(C(F)(F)F)c2)cc1 |  | 1.66 | > 50 |  |
| CCCCCNCC(O)(P(=O)(O)O)P(=O)(O)O | 0.067 |  |  |  |
| N#Cc1ccc(Oc2ccc(Cl)cc2O)c(Cl)c1 |  |  |  | IC50 [1]: 0.024 µM |
| CCCCCCCCCNCC(F)(P(=O)(O)O)P(=O)(O)O | 0.06 |  |  |  |
| C/C(=N\Nc1nc(-c2ccc(Cl)c(Cl)c2)cs1)c1ccc(Nc2nc(N)nc(N)n2)cc1 |  |  |  | IC50 (Toxoplasma gondii [3]): 14.9 µg/mL |
| N#CSCCOc1ccc(Oc2cccc(Oc3cccc(F)c3)c2)cc1 |  | 1.63 | > 50 |  |
| O=C(Nc1ccc([N+](=O)[O-])cc1Cl)c1cc(Cl)ccc1O [NICLOSAMIDE] |  |  |  | MIC50 (Toxoplasma gondii [3]): 0.2 µM (≈ 0.0654 µg/mL) |
| CCCCCCCCNCC(F)(P(=O)(O)O)P(=O)(O)O | 0.035 |  |  |  |
| CCCCCCCCCCNCC(O)(P(=O)(O)O)P(=O)(O)O | 0.125 |  |  |  |
| O=P(O)(O)C(CNCCOc1cccc(Oc2ccccc2)c1)P(=O)(O)O |  | 2.4 | > 50 |  |
| O=C(NNC(=S)Nc1ccc(F)cc1)c1cccs1 |  |  |  | IC50 (Toxoplasma gondii [3]): 33.2 µg/mL |
| CCCCCCCCC[S+]([O-])CC(P(=O)(O)O)P(=O)(O)O (stereo not given) | 0.056 |  |  |  |
| CCCCCCC[S+]([O-])CC(P(=O)(O)O)P(=O)(O)O (stereo not given) | 0.009 |  |  |  |
| CC(=O)c1cc(Oc2ccccc2)ccc1OCCSC#N |  |  | 75.7 |  |
| CCCCCCCCCCNCC(P(=O)(O)O)P(=O)(O)O | 0.068 |  |  |  |
| CCCCCCCCCC[S+]([O-])CC(P(=O)(O)O)P(=O)(O)O (stereo not given) | > 10 |  |  |  |
